Values joined by “and” are separate entries in the source; they are usually repeats but may differ in a detail not shown here. Equal values may be shown once. Toxic doses and inconclusive results are not listed.
System: P388 leukemia ip, CD2F1 mice, survival T/C
Test: NCI In Vivo Anticancer Drug Screen. Data for tumor model P388 Leukemia (intraperitoneal) in CD2F1 (CDF1) mice
Conditions: endpoint: median survival time, higher = longer survival
How it was run: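 Mice carrying the transplanted tumor received test compound or vehicle. Survival was recorded in each group, and the value is the treated-group measurement divided by that of the vehicle-treated control group.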

[1] = dose: 50.0 mg/kg/injection, schedule: Q01DX005 (ip), vehicle: Klucel (hydroxypropylcellulose) (HPC)
[2] = dose: 100.0 mg/kg/injection, schedule: Q01DX005 (ip), vehicle: Klucel (hydroxypropylcellulose) (HPC)
[3] = dose: 200.0 mg/kg/injection, schedule: Q01DX005 (ip), vehicle: Klucel (hydroxypropylcellulose) (HPC)
[4] = dose: 400.0 mg/kg/injection, schedule: Q01DX005 (ip), vehicle: Klucel (hydroxypropylcellulose) (HPC)
[5] = dose: 50.0 mg/kg/injection, schedule: Q01DX009 (ip), vehicle: saline with Tween-80
[6] = dose: 100.0 mg/kg/injection, schedule: Q01DX009 (ip), vehicle: saline with Tween-80
[7] = dose: 100.0 mg/kg/injection, schedule: Q04DX002 (ip), vehicle: saline with Tween-80
[8] = dose: 50.0 mg/kg/injection, schedule: Q01DX005 (ip), vehicle: saline
[9] = dose: 100.0 mg/kg/injection, schedule: Q01DX005 (ip), vehicle: saline
[10] = dose: 60.0 mg/kg/injection, schedule: Q01DX005 (ip), vehicle: saline with Tween-80
[11] = dose: 120.0 mg/kg/injection, schedule: Q01DX005 (ip), vehicle: saline with Tween-80
[12] = dose: 240.0 mg/kg/injection, schedule: Q01DX005 (ip), vehicle: saline with Tween-80
[13] = dose: 50.0 mg/kg/injection, schedule: Q01DX009 (ip), vehicle: Klucel (hydroxypropylcellulose) (HPC)
[14] = dose: 100.0 mg/kg/injection, schedule: Q01DX009 (ip), vehicle: Klucel (hydroxypropylcellulose) (HPC)
[15] = dose: 200.0 mg/kg/injection, schedule: Q01DX009 (ip), vehicle: Klucel (hydroxypropylcellulose) (HPC)
[16] = dose: 50.0 mg/kg/injection, schedule: Q01DX005 (ip), vehicle: saline with Tween-80
[17] = dose: 100.0 mg/kg/injection, schedule: Q01DX005 (ip), vehicle: saline with Tween-80
[18] = dose: 200.0 mg/kg/injection, schedule: Q01DX009 (ip), vehicle: saline with Tween-80
[19] = dose: 100.0 mg/kg/injection, schedule: Q04DX003 (ip), vehicle: saline with Tween-80
[20] = dose: 200.0 mg/kg/injection, schedule: Q04DX003 (ip), vehicle: saline with Tween-80

## O=C1CCC(=O)N1CCCCCCN1C(=O)CCC1=O
[1]
  T/C: 90 % of control
[2]
  T/C: 99 % of control
[3]
  T/C: 98 % of control
[4]
  T/C: 89 % of control

## CCC(=NCCN=C(CC)c1cc(C)ccc1O)c1cc(C)ccc1O
[1]
  T/C: 101 % of control
[2]
  T/C: 108 % of control
[3]
  T/C: 111 % of control

## CCCCCCCCCCCCCCCC1C(N)C(=O)N(C)N1C (centres undefined)
[5]
  T/C: 86 % of control
[6]
  T/C: 95 % of control

## NC(=Nc1ccc(Cl)cc1)NN=C(c1ccc(Cl)cc1)c1ccc(Cl)cc1
dose: 25.0 mg/kg/injection, schedule: Q04DX002 (ip), vehicle: saline with Tween-80
  T/C: 104 % of control
dose: 50.0 mg/kg/injection, schedule: Q04DX002 (ip), vehicle: saline with Tween-80
  T/C: 101 % of control
[7]
  T/C: 102 % of control
dose: 200.0 mg/kg/injection, schedule: Q04DX002 (ip), vehicle: saline with Tween-80
  T/C: 100 % of control
dose: 400.0 mg/kg/injection, schedule: Q04DX002 (ip), vehicle: saline with Tween-80
  T/C: 113 % of control

## COc1ccc2c(NCCCCCCCCNc3c4ccc(OC)cc4nc4ccc(Cl)cc34)c3cc(Cl)ccc3nc2c1
dose: 0.63 mg/kg/injection, schedule: Q01DX009 (ip), vehicle: other
  T/C: 91 % of control
dose: 1.25 mg/kg/injection, schedule: Q01DX009 (ip), vehicle: other
  T/C: 105 % of control
dose: 2.5 mg/kg/injection, schedule: Q01DX009 (ip), vehicle: other
  T/C: 106 % of control
dose: 5.0 mg/kg/injection, schedule: Q01DX009 (ip), vehicle: other
  T/C: 118 % of control

## C=CC(C)(CCC=C(C)C)ON(C)C (centres undefined)
[7]
  T/C: 100 % of control

## Cc1ccc(/C=C/C(=O)C(C)CN(C)C)cc1C (centres undefined)
[8]
  T/C: 106 % of control
[9]
  T/C: 109 % of control

## COC(=O)C1(CC(=O)C(C)(C)C)NC(=S)NC(=O)C1C#N (centres undefined)
dose: 60.0 mg/kg/injection, schedule: Q01DX005 (ip), vehicle: saline
  T/C: 107 % of control
dose: 120.0 mg/kg/injection, schedule: Q01DX005 (ip), vehicle: saline
  T/C: 101 % of control
dose: 240.0 mg/kg/injection, schedule: Q01DX005 (ip), vehicle: saline
  T/C: 97 % of control

## C=C1COC(=O)[C@@]12CC[C@@]1(C)[C@@H](CC[C@@H]3[C@@H]1CC[C@]1(C)C([C@H](C)CCCC(C)C)CC[C@@H]31)C2 (some centres undefined)
dose: 100.0 mg/kg/injection, schedule: Q01DX001 (ip), vehicle: saline with Tween-80
  T/C: 96 % of control
dose: 200.0 mg/kg/injection, schedule: Q01DX001 (ip), vehicle: saline with Tween-80
  T/C: 93 % of control
dose: 400.0 mg/kg/injection, schedule: Q01DX001 (ip), vehicle: saline with Tween-80
  T/C: 91 % of control

## Cc1nc(N(C)C)oc(=O)c1CCc1ccccc1
[10]
  T/C: 102 % of control
[11]
  T/C: 102 % of control
[12]
  T/C: 100 % of control

## c1cc(NNc2cccc(-c3nn[nH]n3)c2)cc(-c2nn[nH]n2)c1
[13]
  T/C: 95 % of control
[14]
  T/C: 117 % of control
[15]
  T/C: 113 % of control

## CSCCC([NH-])C(=O)O.CSCCC([NH-])C(=O)O.[Zn+2] (centres undefined)
[16]
  T/C: 110 % of control
[17]
  T/C: 111 % of control

## OCCN1CCSC1=S
[5]
  T/C: 95 % of control
[6]
  T/C: 90 % of control
[18]
  T/C: 100 % of control

## COc1ccc(C2CCCC(CCc3ccc(O)cc3)O2)cc1 (centres undefined)
[1]
  T/C: 100 % of control
[2]
  T/C: 103 % of control
[3]
  T/C: 100 % of control

## CCCCCCCCCCC(=O)CC
[6]
  T/C: 104 % of control
[19]
  T/C: 100 % of control
[18]
  T/C: 104 % of control
[20]
  T/C: 100 % of control
dose: 400.0 mg/kg/injection, schedule: Q01DX009 (ip), vehicle: saline with Tween-80
  T/C: 109 % of control
dose: 400.0 mg/kg/injection, schedule: Q04DX003 (ip), vehicle: saline with Tween-80
  T/C: 100 % of control

## CCCCN=Cc1ccccc1
[19]
  T/C: 100 % of control
[20]
  T/C: 100 % of control

## CP(=O)(NN)c1ccccc1 (centres undefined)
dose: 12.5 mg/kg/injection, schedule: Q01DX009 (ip), vehicle: water
  T/C: 89 % of control
dose: 25.0 mg/kg/injection, schedule: Q01DX009 (ip), vehicle: water
  T/C: 96 % of control
dose: 50.0 mg/kg/injection, schedule: Q01DX009 (ip), vehicle: water
  T/C: 101 % of control

## CCCCN(CCCC)CC1CC(C(C)(C)C)CCC1O (centres undefined)
[1]
  T/C: 91 % of control
[2]
  T/C: 91 % of control

## CCSc1nc2ccc(N=Cc3ccc(NS(=O)(=O)c4ccccc4)cc3O)cc2s1
[13]
  T/C: 116 % of control
[14]
  T/C: 103 % of control

## O=C(Oc1ccc[nH]c1=O)C1CCC1
[1]
  T/C: 102 % of control and 92 % of control
[2]
  T/C: 102 % of control and 90 % of control
[3]
  T/C: 100 % of control and 91 % of control
[4]
  T/C: 100 % of control and 103 % of control

## CCCCCCCOc1cccc(OCCCC[N+]2(CC)CCCCC2)c1
dose: 1.56 mg/kg/injection, schedule: Q01DX009 (ip), vehicle: saline
  T/C: 97 % of control
dose: 3.12 mg/kg/injection, schedule: Q01DX009 (ip), vehicle: saline
  T/C: 100 % of control
dose: 6.25 mg/kg/injection, schedule: Q01DX009 (ip), vehicle: saline
  T/C: 100 % of control

## COC(=O)CCSC(=O)NS(=O)(=O)c1ccc(C)cc1
[1]
  T/C: 104 % of control
[2]
  T/C: 102 % of control
[3]
  T/C: 104 % of control

## CC1=CC(C)(C)NN1C1=NS(=O)(=O)c2ccccc2N1C
[10]
  T/C: 101 % of control
[11]
  T/C: 97 % of control
[12]
  T/C: 101 % of control

## CSc1nc2nc[nH]c2c(=O)[nH]1
dose: 12.5 mg/kg/injection, schedule: Q01DX005 (ip), vehicle: saline with Tween-80
  T/C: 100 % of control
dose: 25.0 mg/kg/injection, schedule: Q01DX005 (ip), vehicle: saline with Tween-80
  T/C: 100 % of control
[16]
  T/C: 101 % of control and 105 % of control
[17]
  T/C: 101 % of control
dose: 200.0 mg/kg/injection, schedule: Q01DX005 (ip), vehicle: saline with Tween-80
  T/C: 104 % of control

## CC(C)(Oc1ccc(C(=O)c2ccc(Cl)c(Cl)c2)cc1)C(=O)O
[5]
  T/C: 94 % of control
[6]
  T/C: 102 % of control
[18]
  T/C: 107 % of control

## CN(C)/C=C1\C(C(C)(C)C)=CC(C(C)(C)C)=C1N=O
dose: 60.0 mg/kg/injection, schedule: Q01DX005 (ip), vehicle: Klucel (hydroxypropylcellulose) (HPC)
  T/C: 105 % of control
dose: 120.0 mg/kg/injection, schedule: Q01DX005 (ip), vehicle: Klucel (hydroxypropylcellulose) (HPC)
  T/C: 104 % of control

## N=C(N)c1ccc(-c2ccc(-c3ccc(C(=N)N)cc3)s2)cc1
dose: 12.5 mg/kg/injection, schedule: Q04DX003 (ip), vehicle: suspension in saline
  T/C: 106 % of control
dose: 25.0 mg/kg/injection, schedule: Q04DX003 (ip), vehicle: suspension in saline
  T/C: 120 % of control
dose: 100.0 mg/kg/injection, schedule: Q04DX003 (ip), vehicle: suspension in saline
  T/C: 169 % of control

## Cc1ccc(S(=O)(=O)C(Cl)(SOCc2ccccc2)Sc2ccccc2)cc1 (centres undefined)
[13]
  T/C: 109 % of control
[14]
  T/C: 100 % of control
[15]
  T/C: 114 % of control

## CC1(COC(=O)C2(C)CO2)CO1 (centres undefined)
dose: 25.0 mg/kg/injection, schedule: Q01DX005 (ip), vehicle: water
  T/C: 99 % of control
[8]
  T/C: 91 % of control
dose: 50.0 mg/kg/injection, schedule: Q01DX005 (ip), vehicle: water
  T/C: 101 % of control and 115 % of control
[9]
  T/C: 97 % of control
dose: 100.0 mg/kg/injection, schedule: Q01DX005 (ip), vehicle: water
  T/C: 120 % of control
dose: 200.0 mg/kg/injection, schedule: Q01DX005 (ip), vehicle: saline
  T/C: 91 % of control

## N#C/C(=C/c1cccs1)c1cccs1
[10]
  T/C: 100 % of control
[11]
  T/C: 106 % of control
[12]
  T/C: 109 % of control

## CC1CC[N-]C(C)C1.CN(C)C=O.[Cl][Pt][Cl] (centres undefined)
dose: 1.56 mg/kg/injection, schedule: Q01DX009 (ip), vehicle: saline with Tween-80
  T/C: 114 % of control
dose: 3.13 mg/kg/injection, schedule: Q01DX009 (ip), vehicle: saline with Tween-80
  T/C: 124 % of control

## COc1cc(OC)c(NC(=O)Oc2cc(C)c(Br)c(C)c2)cc1Cl
[5]
  T/C: 91 % of control
[6]
  T/C: 95 % of control
[18]
  T/C: 108 % of control

## O=S(=O)(Nc1cccnc1)c1ccccc1
[10]
  T/C: 106 % of control
[11]
  T/C: 100 % of control
[12]
  T/C: 105 % of control

## CCN(CC)C(=O)c1c(C(=O)OC)c(C)n(NC(=O)c2cccc(C)c2)c1C
[10]
  T/C: 90 % of control
[11]
  T/C: 87 % of control

Source: PubChem BioAssay AID330 (DTP/NCI, 2004)
